Test results from ChEMBL document CHEMBL2375301, “Design and synthesis of novel 4-benzothiazole amino quinazolines Dasatinib derivatives as potential anti-tumor agents” (Eur J Med Chem, 2013).

Columns and labels:
[1] = tested on: HCT-116; assay: Cytotoxicity against human HCT116 cells after 72 hrs by WST-8 assay; assay type: functional, cell-based; settings: HCT-116, 72 h
[2] = target: Epidermal growth factor receptor (Homo sapiens) (UniProt P00533); settings: at 10 µM
Description: Inhibition of EGFR (unknown origin) at 10 uM relative to control

[3] = tested on: NCI-H661; assay: Cytotoxicity against human NCI-H661 cells after 72 hrs by WST-8 assay; assay type: functional, cell-based; settings: NCI-H661, 72 h
[4] = tested on: K562; assay: Cytotoxicity against human K562 cells after 72 hrs by WST-8 assay; assay type: functional, cell-based; settings: K562, 72 h
[5] = target: Tyrosine-protein kinase ABL1 (Homo sapiens) (UniProt P00519); settings: at 10 µM
Sequence of Tyrosine-protein kinase ABL1 (Homo sapiens) (P00519 whole entry): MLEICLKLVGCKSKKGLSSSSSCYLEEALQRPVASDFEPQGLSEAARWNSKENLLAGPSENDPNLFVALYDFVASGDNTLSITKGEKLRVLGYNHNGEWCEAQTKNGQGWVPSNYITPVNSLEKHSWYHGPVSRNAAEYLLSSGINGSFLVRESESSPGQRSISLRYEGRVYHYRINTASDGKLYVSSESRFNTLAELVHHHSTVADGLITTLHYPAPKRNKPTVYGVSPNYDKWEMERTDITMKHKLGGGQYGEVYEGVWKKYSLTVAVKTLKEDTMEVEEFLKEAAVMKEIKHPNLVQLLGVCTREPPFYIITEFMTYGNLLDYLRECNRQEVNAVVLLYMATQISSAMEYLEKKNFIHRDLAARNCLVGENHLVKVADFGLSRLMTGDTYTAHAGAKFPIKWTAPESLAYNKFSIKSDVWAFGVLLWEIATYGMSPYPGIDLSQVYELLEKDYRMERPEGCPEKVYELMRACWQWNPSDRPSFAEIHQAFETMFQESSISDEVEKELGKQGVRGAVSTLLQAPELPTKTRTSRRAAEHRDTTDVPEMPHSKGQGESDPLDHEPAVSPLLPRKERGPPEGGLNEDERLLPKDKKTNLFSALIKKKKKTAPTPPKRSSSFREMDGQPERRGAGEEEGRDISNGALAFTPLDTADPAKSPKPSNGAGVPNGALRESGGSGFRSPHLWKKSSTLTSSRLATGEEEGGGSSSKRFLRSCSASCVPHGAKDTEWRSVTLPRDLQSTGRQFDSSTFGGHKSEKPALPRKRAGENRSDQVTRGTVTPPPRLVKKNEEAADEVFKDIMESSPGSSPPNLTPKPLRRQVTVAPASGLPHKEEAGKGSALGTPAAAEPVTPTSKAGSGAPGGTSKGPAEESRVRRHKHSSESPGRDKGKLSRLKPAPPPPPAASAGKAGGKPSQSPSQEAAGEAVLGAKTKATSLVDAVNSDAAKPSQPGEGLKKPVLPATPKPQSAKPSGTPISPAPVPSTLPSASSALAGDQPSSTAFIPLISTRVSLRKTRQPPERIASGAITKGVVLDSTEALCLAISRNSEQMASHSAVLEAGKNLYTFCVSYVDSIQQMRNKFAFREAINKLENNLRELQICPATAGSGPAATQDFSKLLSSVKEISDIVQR
Description: Inhibition of human recombinant ABL at 10 uM relative to control

[6] = tested on: U-937; assay: Cytotoxicity against human U937 cells after 72 hrs by WST-8 assay; assay type: functional, cell-based; settings: U-937, 72 h
[7] = tested on: A549; assay: Cytotoxicity against human A549 cells after 72 hrs by WST-8 assay; assay type: functional, cell-based; settings: A549, 72 h
[8] = target: Proto-oncogene tyrosine-protein kinase Src (Homo sapiens) (UniProt P12931); settings: at 10 µM
Sequence of Proto-oncogene tyrosine-protein kinase Src (Homo sapiens) (P12931 2-536 limits assumed): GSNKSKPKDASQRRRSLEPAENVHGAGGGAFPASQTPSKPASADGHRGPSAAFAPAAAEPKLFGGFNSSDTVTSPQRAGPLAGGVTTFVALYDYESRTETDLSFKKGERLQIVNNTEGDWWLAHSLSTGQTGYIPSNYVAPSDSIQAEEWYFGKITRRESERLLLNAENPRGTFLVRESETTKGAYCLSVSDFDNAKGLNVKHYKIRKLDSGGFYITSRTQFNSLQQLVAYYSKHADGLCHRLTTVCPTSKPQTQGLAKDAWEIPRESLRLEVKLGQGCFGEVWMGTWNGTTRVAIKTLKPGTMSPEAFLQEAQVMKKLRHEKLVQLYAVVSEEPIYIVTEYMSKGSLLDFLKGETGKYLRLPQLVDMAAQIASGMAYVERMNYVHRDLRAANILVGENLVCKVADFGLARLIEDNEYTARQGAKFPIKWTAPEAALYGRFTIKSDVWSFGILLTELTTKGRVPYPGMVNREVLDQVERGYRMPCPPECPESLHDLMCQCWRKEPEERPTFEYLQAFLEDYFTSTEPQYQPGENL
Description: Inhibition of human recombinant SRC at 10 uM relative to control

[9] = tested on: DLD-1; assay: Cytotoxicity against human DLD1 cells after 72 hrs by WST-8 assay; assay type: functional, cell-based; settings: DLD-1, 72 h

Sequence of Epidermal growth factor receptor (Homo sapiens) (P00533 whole entry): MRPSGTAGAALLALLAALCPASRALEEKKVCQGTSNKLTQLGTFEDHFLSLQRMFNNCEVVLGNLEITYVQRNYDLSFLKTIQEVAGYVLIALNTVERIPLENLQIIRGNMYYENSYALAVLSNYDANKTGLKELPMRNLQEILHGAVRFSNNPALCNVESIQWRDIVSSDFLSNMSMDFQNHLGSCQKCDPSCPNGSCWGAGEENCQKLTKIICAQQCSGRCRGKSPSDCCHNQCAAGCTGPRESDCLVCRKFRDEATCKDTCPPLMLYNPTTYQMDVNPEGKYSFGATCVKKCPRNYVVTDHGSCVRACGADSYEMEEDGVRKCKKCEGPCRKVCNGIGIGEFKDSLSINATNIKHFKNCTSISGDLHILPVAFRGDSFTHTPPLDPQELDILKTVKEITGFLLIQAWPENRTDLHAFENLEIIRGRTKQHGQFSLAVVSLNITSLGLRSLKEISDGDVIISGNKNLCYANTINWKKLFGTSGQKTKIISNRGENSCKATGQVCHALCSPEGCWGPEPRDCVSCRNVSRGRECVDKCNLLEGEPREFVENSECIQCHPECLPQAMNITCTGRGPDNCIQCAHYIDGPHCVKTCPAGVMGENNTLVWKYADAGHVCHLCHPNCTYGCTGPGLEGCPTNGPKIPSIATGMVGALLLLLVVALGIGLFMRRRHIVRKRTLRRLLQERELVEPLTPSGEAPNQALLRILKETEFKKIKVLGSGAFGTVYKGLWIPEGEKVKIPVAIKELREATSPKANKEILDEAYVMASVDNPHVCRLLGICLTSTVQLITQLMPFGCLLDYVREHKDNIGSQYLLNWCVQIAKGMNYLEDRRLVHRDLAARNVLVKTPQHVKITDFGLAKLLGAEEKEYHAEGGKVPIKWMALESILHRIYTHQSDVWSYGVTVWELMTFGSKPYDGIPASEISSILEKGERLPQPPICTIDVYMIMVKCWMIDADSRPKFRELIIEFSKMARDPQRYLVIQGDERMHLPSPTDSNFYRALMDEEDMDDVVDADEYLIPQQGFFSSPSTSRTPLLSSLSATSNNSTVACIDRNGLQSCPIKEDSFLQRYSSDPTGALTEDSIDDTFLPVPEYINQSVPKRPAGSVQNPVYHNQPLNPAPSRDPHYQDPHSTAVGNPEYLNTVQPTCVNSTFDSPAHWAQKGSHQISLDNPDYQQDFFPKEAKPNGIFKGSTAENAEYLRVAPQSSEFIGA

Row | Compound | IC50 [1] | inhibition [2] | IC50 [3] | IC50 [4] | inhibition [5] | IC50 [6] | IC50 [7] | inhibition [8] | IC50 [9]
1 | COc1cc2c(Nc3nc4ccc(C(=O)Nc5c(C)cccc5C)cc4s3)ncnc2cc1OCCCN1CCCCC1 | > 100 µM | 17.3% | > 100 µM | 13.7 µM | 39% | 14.7 µM | > 100 µM | 43.4% | > 100 µM
2 | Cc1nc(Nc2ncc(C(=O)Nc3c(C)cccc3Cl)s2)cc(N2CCN(CCO)CC2)n1 [DASATINIB] | 5.3 µM | – | 7.8 µM | 11.9 µM | – | 12.2 µM | 8.2 µM | – | 4.6 µM
3 | COc1cc2c(Nc3nc4ccc(C(=O)Nc5c(C)cccc5Cl)cc4s3)ncnc2cc1OCCCN1CCCC1 | 63.8 µM | 15.6% | 45.5 µM | 13.3 µM | 78.7% | 19.9 µM | 38.6 µM | 55.7% | 60.7 µM
4 | COc1cc2c(Nc3nc4ccc(C(=O)Nc5c(C)cccc5C)cc4s3)ncnc2cc1OCCCN1CCCCC1C (configuration not stated) | > 100 µM | 25.4% | 84.4 µM | 12.3 µM | 49.2% | 10.8 µM | 75.7 µM | 49% | > 100 µM
5 | COc1cc2c(Nc3nc4ccc(C(=O)Nc5c(C)cc(C)cc5C)cc4s3)ncnc2cc1OCCCN1CCC(C)CC1 | 6.9 µM | 36.3% | 7.7 µM | 5.9 µM | 68.2% | 5.6 µM | 5.4 µM | 78.6% | 7 µM
6 | COc1cc2c(Nc3nc4ccc(C(=O)Nc5c(C)cccc5C)cc4s3)ncnc2cc1OCCCN1CCOCC1 | > 100 µM | 9.9% | > 100 µM | > 100 µM | 41.7% | 19.2 µM | > 100 µM | 28.7% | > 100 µM
7 | COc1cc2c(Nc3nc4ccc(C(=O)Nc5c(C)cc(C)cc5C)cc4s3)ncnc2cc1OCCCN1CCCCC1 | 16.9 µM | 37.9% | 10 µM | 9.3 µM | 81.6% | 12.2 µM | 10.3 µM | 69.7% | 24.5 µM
8 | COc1cc2c(Nc3nc4ccc(C(=O)Nc5c(C)cccc5C)cc4s3)ncnc2cc1OCCCN1CCC(C)CC1 | > 100 µM | 13.3% | 72.3 µM | 15.8 µM | 54.2% | 11.2 µM | 89.7 µM | 56.5% | > 100 µM
9 | COc1cc2c(Nc3nc4ccc(C(=O)Nc5c(C)cccc5Cl)cc4s3)ncnc2cc1OCCCN1CCOCC1 | > 100 µM | 10.4% | > 100 µM | 16.4 µM | 43.7% | 22.6 µM | 75.2 µM | 34.3% | > 100 µM
10 | COc1cc2c(Nc3nc4ccc(C(=O)Nc5c(C)cc(C)cc5C)cc4s3)ncnc2cc1OCCCN1CCCC1 | 5.8 µM | 48.7% | 9.6 µM | 4.3 µM | 82.3% | 4.6 µM | 8.9 µM | 91.8% | 5.9 µM
11 | COc1cc2c(Nc3nc4ccc(C(=O)Nc5c(C)cccc5C)cc4s3)ncnc2cc1OCCCN1CCCC1 | > 100 µM | 21.2% | > 100 µM | 15.7 µM | 34.3% | 18.9 µM | 83.8 µM | 39.9% | > 100 µM
12 | CCN(CC)CCCOc1cc2ncnc(Nc3nc4ccc(C(=O)Nc5c(C)cccc5Cl)cc4s3)c2cc1OC | 13.2 µM | 46.8% | 11.2 µM | 9.6 µM | 67.1% | 7.3 µM | 10.6 µM | 68.2% | 11.7 µM
13 | CCN(CC)CCCOc1cc2ncnc(Nc3nc4ccc(C(=O)Nc5c(C)cc(C)cc5C)cc4s3)c2cc1OC | 7.5 µM | 25.4% | 7.3 µM | 6.8 µM | 76.3% | 4.3 µM | 5.7 µM | 65.3% | 6.8 µM
14 | COc1cc2c(Nc3nc4ccc(C(=O)Nc5c(C)cc(C)cc5C)cc4s3)ncnc2cc1OCCCN1CCOCC1 | 5.6 µM | 45.1% | 18.4 µM | 20 µM | 76.5% | 24.2 µM | 16.3 µM | 80.6% | 5.8 µM
15 | COc1cc2c(Nc3nc4ccc(C(=O)Nc5c(C)cccc5Cl)cc4s3)ncnc2cc1OCCCN1CCC(C)CC1 | 9.1 µM | 23.7% | 7.9 µM | 8.3 µM | 56.2% | 9.2 µM | 9.7 µM | 67.4% | 11.3 µM
16 | COc1cc2c(Nc3nc4ccc(C(=O)Nc5c(C)cccc5Cl)cc4s3)ncnc2cc1OCCCN1CCCCC1 | 23.4 µM | 28.7% | 13.8 µM | 12.5 µM | 49.9% | 8.6 µM | 12.8 µM | 83.3% | 14.7 µM
17 | COc1cc2c(Nc3nc4ccc(C(=O)Nc5c(C)cccc5Cl)cc4s3)ncnc2cc1OCCCN1CCCCC1C (configuration not stated) | 7.2 µM | 53.6% | 5.3 µM | 6.8 µM | 71.1% | 7 µM | 6.7 µM | 78.9% | 6.7 µM
18 | COc1cc2c(Nc3nc4ccc(C(=O)Nc5c(C)cc(C)cc5C)cc4s3)ncnc2cc1OCCCN1CCCCC1C (configuration not stated) | 5.6 µM | 65.8% | 8.8 µM | 3.5 µM | – | 3.6 µM | 5.8 µM | 89.2% | 5.7 µM
19 | CCN(CC)CCCOc1cc2ncnc(Nc3nc4ccc(C(=O)Nc5c(C)cccc5C)cc4s3)c2cc1OC | > 100 µM | 10.5% | 66.5 µM | 28.4 µM | 50% | 23.7 µM | > 100 µM | 53.6% | > 100 µM
